This note sets out measurements from patent US20030180723A1, “Cloning of novel gene sequences expressed and repressed during winter dormancy in the apical buds of tea ( Camellia sinensis L. (O.) Kuntze) bush” (priority 2001, published 2003).

This test deals with dormant apical buds of tea bush. The test is described as follows: Forced break of bud dormancy by GA3 on a winter-dormant tea bush. It counts as in vivo, Camellia sinensis L. (O.) Kuntze. The settings on record: out of 20 buds; 5 μM in 5% ethanol, applied onto each dormant bud with a paint brush at least 4 times on the same day, December; bud length and perimeter as indicator of growth. The procedure:
Above Example 6 identified 4 differentially expressed genes cloned by us. To further correlate these differentially expressed genes with the phenomenon of dormancy, the dormant bush during winter month was forced to break bud dormancy using a plant growth regulator gibberrellic acid (hereinafter referred to GA3). GA3 was dissolved in 5% ethanol to yield a final concetration of 5 μM. The solution was applied onto each dormant bud with the help of a paint brush at least 4 times on the same day during the month of December. Bud length and its perimeter was recorded regularly as an indicator of its growth. […] These were termed as forced ND apical buds. These were collected and stored as mentioned in Example 1 and used for the purpose of RNA isolation to be used in northern analysis.

On to `C=C1C[C@]23C[C@@]1(O)CC[C@H]2[C@@]12C=C[C@H](O)[C@@](C)(C(=O)O1)[C@H]2[C@@H]3C(=O)O` [GA3, gibberrellic acid], for which the “buds that showed increase in growth (dormancy break)” value was determined as 10 buds.
